Literature values as cited in patent publication US9561285B2, “Carrier-linked carbamate prodrug linkers” (Ascendis Pharma AS, priority 2010, dated 2017).

Settings: buffer, pH 7

In the case of `O=C(Nc1ccccc1)Oc1ccc([N+](=O)[O-])cc1` [p-nitrophenyl-O—CO—NH-phenyl], the half-life of hydrolysis is listed as 26 s.
